This assay concerns the target Dihydroorotate dehydrogenase (Helicobacter pylori). The assay can be described thus: Inhibition of dihydroorotate dehydrogenase (DHODase) of Helicobacter pylori.

Each structure is given as a SMILES string.

`COc1ccc(-n2nc(C(=O)NCC(C)C)cc2C(=O)Nc2ccc(C(=O)N3CCCC3)cc2)cc1` [1-(4-Methoxy-phenyl)-1H-pyrazole-3,5-dicarboxylic acid 3-(isobutyl-amide) 5-{[4-(pyrrolidine-1-carbonyl)-phenyl]-amide}] showed a Ki of 0.138 µM.

On to `O=C(NCc1cccnc1)c1cc(C(=O)Nc2ccc(N3CCCCC3)cc2)n(-c2ccc(Cl)cc2)n1` [1-(4-Chloro-phenyl)-1H-pyrazole-3,5-dicarboxylic acid 5-[(4-piperidin-1-yl-phenyl)-amide] 3-[(pyridin-3-ylmethyl)-amide]], for which the Ki amounted to 0.008 µM.

Compound `Cc1ccc(CNC(=O)c2cc(C(=O)Nc3ccccc3)n(-c3ccc(Cl)cc3)n2)cc1` [1-(4-Chloro-phenyl)-1H-pyrazole-3,5-dicarboxylic acid 3-(4-methyl-benzylamide) 5-phenylamide] registered a Ki of 0.032 µM.

Take `COc1ccc(-n2nc(C(=O)NCc3cccnc3)cc2C(=O)Nc2ccccc2)cc1` [1-(4-Methoxy-phenyl)-1H-pyrazole-3,5-dicarboxylic acid 5-phenylamide 3-[(pyridin-3-ylmethyl)-amide]]: the inhibition constant (Ki) turned out to be 0.012 µM.

As to `CC(C)CNC(=O)c1cc(C(=O)NCc2ccccc2)nn1-c1ccc(Cl)cc1` [1-(4-Chloro-phenyl)-1H-pyrazole-3,5-dicarboxylic acid 3-benzylamide 5-(isobutyl-amide)], the Ki turned out to be 0.091 µM.

As for `NC(=O)c1ccc(NC(=O)c2cc(C(=O)NCc3ccccc3)nn2-c2ccc(Cl)cc2)cc1` [1-(4-Chloro-phenyl)-1H-pyrazole-3,5-dicarboxylic acid 3-benzylamide 5-[(4-carbamoyl-phenyl)-amide]], the inhibition constant Ki came out at 0.006 µM.

Turning to `COc1ccc(-n2nc(C(=O)NCC3CCCO3)cc2C(=O)Nc2ccc(C(=O)N3CCCC3)cc2)cc1` (stereo unspecified) [1-(4-Methoxy-phenyl)-1H-pyrazole-3,5-dicarboxylic acid 5-{[4-(pyrrolidine-1-carbonyl)-phenyl]-amide} 3-[(tetrahydro-furan-2-ylmethyl)-amide]], the affinity corresponds to a Ki of 0.331 µM.

Compound `O=C(NCc1cccnc1)c1cc(C(=O)Nc2ccccc2)n(-c2ccc(Cl)cc2)n1` [1-(4-Chloro-phenyl)-1H-pyrazole-3,5-dicarboxylic acid 5-phenylamide 3-[(pyridin-3-ylmethyl)-amide]] returned a Ki of 0.004 µM.

Compound `O=C(NCc1ccccc1)c1cc(C(=O)Nc2ccccc2)n(-c2ccc(Cl)cc2)n1` [X1-(4-Chloro-phenyl)-1H-pyrazole-3,5-dicarboxylic acid 3-benzylamide 5-phenylamide] registered a Ki of 0.004 µM.

In the case of `COc1ccc(-n2nc(C(=O)NC(c3ccccc3)c3ccccc3)cc2C(=O)NCc2ccccc2)cc1` [1-(4-Methoxy-phenyl)-1H-pyrazole-3,5-dicarboxylic acid 3-benzhydryl-amide 5-benzylamide], the affinity, expressed as Ki, was 2.4 µM.

For the compound `COc1ccc(-n2nc(C(=O)NCc3ccccc3)cc2C(=O)Nc2ccc(C(=O)N3CCCC3)cc2)cc1` [1-(4-Methoxy-phenyl)-1H-pyrazole-3,5-dicarboxylic acid 3-benzylamide 5-{[4-(pyrrolidine-1-carbonyl)-phenyl]-amide}], the Ki stood at 0.026 µM.

For the origin of these results see BindingDB's records for doi:10.1021/jm020112w (Bristol-Myers Squibb, 2002).
